Assay results taken from publication PMC9030223, “MBP-11901 Inhibits Tumor Growth of Hepatocellular Carcinoma through Multitargeted Inhibition of Receptor Tyrosine Kinases” (Cancers, 2022).
Where “and” joins values, the source holds several entries; their conditions need not be identical. Equal entries are not always repeated. Where two headings read alike, the source gives them in different places.

What was measured:
HepG2 xenograft tumor [1] = conditions: for Tumor growth inhibition rate (%): 42 d (calculated on day 41); for Body weight loss rate (%): day 41
[2] = system: cleaved PARP and active caspase-3 in HepG2 cells; experiment: Western blot of apoptosis markers; type: cell-based, human; conditions: HepG2, time- and dose-dependent
Procedure: (§1) HepG2 cells were seeded in a 60 mm^2 culture dish at a density of 1.5 × 10^6 cells/dish and incubated for 24 h. Cells were treated with MBP-11901 for 24 h. Cells were harvested and protein extraction and Western blotting methods were performed as previously described. Membranes were incubated using the following diluted primary antibodies; PARP (1:1000 dilution), caspase-3 (1:1000 dilution), cleaved caspase-3 (1:1000 dilution), pFLT3 (1:500 dilution), Ras (1:1000 dilution), pc-Raf (1:1000 dilution), pMEK1/2 (1:1000 dilution), pERK1/2 (1:1000 dilution), pAKT (1:1000 dilution), pmTOR (1:1000 dilution), pVEGFR2 (1:1000 dilution), pPDGFR β (1:2000 dilution), and β-actin (1:1000 dilution) in Tris-HCl-based buffer containing 0.2% Tween-20 (T1027, Biosesang, Seongnam, Korea) (TBS-T; pH 7.5). Membranes were then incubated with horseradish-conjugated secondary antibodies (1:5000, Cell Signaling Technologies, Beverly, MA, USA) for 1 h at 25 °C. After washing with TBS-T, immunoreactive bands were visualized using the chemiluminescence western imaging system (Supernova-Q1800TM, Centronics, Daejeon, Korea). Band intensities were measured using ImageJ (Version 1.50i; US National Institutes of Health, Bethesda, MD, USA) and were normalized to β-actin.

HepG2 cells = experiment: Flow cytometry analysis of cell death (sub-G1); type: cell-based, human; conditions: 50 μM
Procedure: Approximately 1.5 × 10^6 HepG2 cells were suspended in […] PBS, and then […] 95% ethanol was added while vortexing. […] Incubation was continued at 37 °C for 30 min. Cellular DNA was then stained by applying […] propidium iodide (50 μg/mL) for 30 min at 25 °C. Stained cells were analyzed on a FACScan flow cytometer for relative DNA content based on increased red fluorescence.

[3] = Pharmacokinetics in mice (data not shown); type: in vivo
HepG2 xenograft tumor [4] = experiment: HepG2 subcutaneous xenograft, dose study (19 d); conditions: for Toxic deaths/total: 19 d; for Body weight loss rate (%) / Tumor growth inhibition rate (%): day 19; for tumor weight per mouse: after 19 d, vehicle control 0.31 ± 0.089 g; for average tumor volume: end of 9 administrations, start 200 mm^3, saline approx. 1000 mm^3
Huh-7 xenograft tumor = experiment: Huh-7 subcutaneous xenograft; type: in vivo, mouse; conditions: Huh-7 subcutaneously implanted model
Source text: We further verified the effectiveness of MBP-11901 by constructing a mouse model in which Hep3B and Huh-7 were subcutaneously transplanted in addition to the human liver cancer cell line HepG2. In the case of Hep3B, the administration was initiated at a tumor volume of about 300 mm^3, once every 2 d, and the experiment was terminated after a total of 12 administrations (Figure S5). […] In contrast, tumors had completely disappeared in 1 out of 6 animals in the MBP-11901 group; 1 had only a trace of a tumor measuring approximately 30 mm^3, whereas the average tumor volume in the 6 animals was approximately 100 mm^3. […] Unlike Nexavar®, there were no side-effects relating to drug resistance or rapid tumor growth.

[5] = system: phosphorylation of FLT3, VEGFR2, c-KIT, PDGFRβ and downstream signals in HepG2 cells; experiment: Western blot of kinase phosphorylation; type: cell-based, human; conditions: HepG2, exposure 10 to 120 min, concentration-dependent
Procedure: as §1, with “Cells were treated with MBP-11901 for 24 h.” left out

[6] = system: HepG2-Luc orthotopic liver tumor; experiment: Orthotopic HCC mouse model (HepG2-Luc bioluminescence); type: in vivo; conditions: 82 mg/kg oral once every other day
Procedure: The orthotopic HCC mouse model was established by placing a small piece of tumor-derived HepG2-Luc cells. Mice were randomly distributed into 3 groups upon bioluminescence signal reaching 10^7. The first group served as the saline control. The second and third groups were orally administered MBP-11901 (82 mg/kg) and Nexavar® (164 mg/kg) once every other day for 4 weeks. Tumor progression/regression was recorded once weekly by quantifying the bioluminescence signals. Experimental animals were sacrificed by CO2 inhalation.

[7] = tumors, compared with vehicle control

## NCC(N)C(=O)Nc1ccc(-c2nc3ccccc3s2)cc1 (stereo not shown) [MBP-11901]
HepG2 xenograft tumor [1]; 82 mg/kg oral 1T/2D, 42 d
  Toxic deaths/total: 0/6
HepG2 xenograft tumor [1]; 82 mg/kg oral 1T/2D
  Tumor growth inhibition rate (%): 99.82 ± 0.33%
  Body weight loss rate (%): 1.85 ± 3.70%
HepG2 xenograft tumor [1]; 82 mg/kg oral 1T/3D, 42 d
  Toxic deaths/total: 0/6
HepG2 xenograft tumor [1]; 82 mg/kg oral 1T/3D
  Tumor growth inhibition rate (%): 99.51 ± 0.81%
  Body weight loss rate (%): −0.43 ± 3.76 %
HepG2 xenograft tumor [1]; 82 mg/kg oral 1T/4D, 42 d
  Toxic deaths/total: 0/6
HepG2 xenograft tumor [1]; 82 mg/kg oral 1T/4D
  Tumor growth inhibition rate (%): 99.48 ± 0.60%
  Body weight loss rate (%): −4.29 ± 0.59 %
HepG2 xenograft tumor [1]; 42 d
  histological analysis of the liver and kidney: no apparent toxicity
HepG2 xenograft tumor [1]; all MBP-11901 groups, after 42 d
  animals in which tumors had disappeared, out of a total of 6: 3–4
HepG2 xenograft tumor [1]; serum, MBP-11901 1T/3D and 1T/4D groups
  GPT values: significantly outside the normal range
[2]
  levels of cleaved PARP and active caspase-3: high levels
HepG2 cells; 8 h
  SubG1: 10.26%
HepG2 cells; 16 h
  SubG1: 17.39%
HepG2 cells; 24 h
  SubG1: 34.68%
[3]
  bioavailability: significantly high
  half-life: long
HepG2 xenograft tumor [4]; 40 mg/kg oral once every 2 d
  Toxic deaths/total: 0/8
  Body weight loss rate (%): 2.00 ± 2.47 %
  Tumor growth inhibition rate (%): 61.41 ± 0.45%
HepG2 xenograft tumor [4]; 40 mg/kg
  tumor weight per mouse: 0.082 ± 0.063 g
  average tumor volume: approximately 350 mm^3
HepG2 xenograft tumor [4]; 60 mg/kg group
  animals in which the tumor completely disappeared: 3 out of 8
HepG2 xenograft tumor [4]; 60 mg/kg oral once every 2 d
  Toxic deaths/total: 0/8
  Body weight loss rate (%): 1.50 ± 1.97 %
  Tumor growth inhibition rate (%): 85.26 ± 0.36%
HepG2 xenograft tumor [4]; 60 mg/kg
  tumor weight per mouse: 0.025 ± 0.035 g
  average tumor volume: ~150 mm^3
HepG2 xenograft tumor [4]; 82 mg/kg group
  animals in which the tumor completely disappeared: 4 out of 8
HepG2 xenograft tumor [4]; 82 mg/kg oral once every 2 d
  Toxic deaths/total: 0/8
  Body weight loss rate (%): 1.78 ± 4.40 %
  Tumor growth inhibition rate (%): 92.54 ± 0.02% and 92.54 ± 0.0 %
HepG2 xenograft tumor [4]; 82 mg/kg
  tumor weight per mouse: 0.011 ± 0.009 g
  average tumor volume: ~70 mm^3
HepG2 xenograft tumor [4]; [7]
  apoptosis in tumors (cleaved caspase-3): high level of apoptosis
  proliferation of tumor cells (Ki-67): significant reduction
Huh-7 xenograft tumor
  tumor disappearance: did not result in tumor disappearance
  tumor weight: significantly reduced
[5]
  kinase phosphorylation: inhibited
[6]; 4 weeks
  level of GPT: within the normal range
[6]; 0 w (immediately before administration)
  Ratio of average luminescence intensity to that of the saline group before administration: 0.77 ± 0.8 fold
[6]; 1 w
  Ratio of average luminescence intensity to that of the saline group before administration: 2.24 ± 2.9 fold
[6]; 2 w
  Ratio of average luminescence intensity to that of the saline group before administration: 0.83 ± 1.8 fold
[6]; 3 w
  Ratio of average luminescence intensity to that of the saline group before administration: 0.03 ± 0.1 fold
[6]; 4 w
  Ratio of average luminescence intensity to that of the saline group before administration: 0.02 ± 0.0 fold
